Converted amounts (≈) assume the structure as drawn. Read-outs that look alike come from different tables or passages of the source.
Legend:
[1] = system: Collectotrichum graminicola (Cg); experiment: In vitro pathogen growth inhibition assay, Cg; format: cell-based; conditions: 48 h
Procedure, shortened: (§1)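 Spores in 17% V8 liquid medium, or 1.5 mm Rs mycelial plugs in ¼ PDB, incubated with compound; final concentration checked by OD600 for precipitation. OD readings at 24 and 48 h, blank-subtracted, plus visual ratings; value is concentration giving ≥90% growth inhibition.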

[2] = system: Phytophthora capsici (Pc); experiment: In vitro pathogen growth inhibition assay, Pc; format: cell-based; conditions: 48 h
Procedure, shortened: as §1

[3] = system: Fusarium moniliforme (Fm); experiment: In vitro pathogen growth inhibition assay, Fm; format: cell-based; conditions: Fusarium verticillioides
Procedure, shortened: as §1

[4] = system: Rhizoctonia solani (Rs); experiment: In vitro pathogen growth inhibition assay, Rs (mycelial plugs); format: cell-based; conditions: Rhizoctonia solani, 48 h, mycelial plugs
Procedure, shortened: as §1

[5] = system: Septoria tritici (St); experiment: In vitro pathogen growth inhibition assay, St; format: cell-based; conditions: Zymoseptoria tritici, 48 h
Procedure, shortened: as §1

[6] = system: Botrtyis cinerea (Bc); experiment: In vitro pathogen growth inhibition assay, Bc; format: cell-based; conditions: 48 h
Procedure, shortened: as §1

[7] = system: Saccharomyces cerevisiae (Sc); experiment: Yeast growth inhibition assay; format: cell-based; conditions: Saccharomyces cerevisiae, ≥75% inhibition, read-out: Compound Concentration (ppm) sufficient for ≥75% inhibition, Sc
Protocol: Both tables list the concentration of each compound that was sufficient to ≥90% inhibition of growth for each of the fungal pathogens listed above. In addition, some of compounds were tested in a yeast growth inhibition assay for Saccharomyces cerevisiae (Sc). Table 2 lists the concentration of the tested compound that was sufficient to ≥75% inhibition of Saccharomyces cerevisiae (Sc).

[8] = system: Fusarium virguliforme (Fv); experiment: In vitro pathogen growth inhibition assay, Fv; format: cell-based
Procedure, shortened: as §1

[9] = system: Diplodia maydis (Dm); experiment: In vitro pathogen growth inhibition assay, Dm; format: cell-based; conditions: Stenocarpella maydis, 48 h
Procedure, shortened: as §1

[10] = system: Blumeria graminis f. sp. hordei; experiment: Foliar protection test for barley powdery mildew control; format: in vivo; conditions: foliar spray on Hordeum vulgare cv. Perry, inoculated 24 hours after treatment, evaluated 7 days later
Procedure, shortened: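 Six-day-old barley (cv. Perry) sprayed to wetness on both leaf sides; 24 h later inoculated by shaking spores from infected stock plants. Kept at 20 to 22° C, 70% relative humidity; mildew colonization assessed 7 days later.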

[11] = system: Fusarium graminearum; format: in vivo; conditions: spray on flowering Triticum aestivum cv. Samson, inoculated 24 hours after treatment, evaluated 14 days later
[12] = system: Mycosphaerella graminicola (synthetic Septoria tritici); experiment: Foliar protection test for wheat septoria leaf blotch control; format: in vivo; conditions: foliar spray on Triticum aestivum cv. WinterHawk, inoculated 1 hour after treatment, evaluated 16 days later
[13] = system: Phakopsora pachyrhizi; experiment: Foliar protection test for Asian soybean rust control; format: in vivo; conditions: foliar application to soybean (Glycine max AG4832), percent disease area evaluated 14 days later
[14] = system: Puccinia triticina; experiment: Foliar protection test for wheat leaf rust control; format: in vivo; conditions: foliar application to wheat (Triticum aestivum cv. Winterhawk), evaluated 10 days later
[15] = system: Sphaerotheca fuliginea; experiment: Foliar protection for cucumber powdery mildew control; format: in vivo; conditions: foliar spray on Cucumis sativus cv. Straight Eight, inoculated 24 hours after treatment, evaluated 7 days later
Procedure, shortened: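 Cucumber plants (cv. Straight Eight, 10 days old) sprayed to wetness on both leaf surfaces, then inoculated 24 h later by shaking sporulating stock plants over them. Held at 23–27 °C, 16 h light, 60% RH. Mildew colonization scored 7 days after inoculation, at compound concentrations of 10 ppm or lower.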

[16] = ≥90% inhibition, 48 hours vs 2% DMSO control, read-out: Compound Concentration (ppm) sufficient for ≥90% inhibition of growth, Cg
[17] = ≥90% inhibition, 48 hours vs 2% DMSO control, read-out: Compound Concentration (ppm) sufficient for ≥90% inhibition of growth, Pc
[18] = ≥90% inhibition, 48 hours vs 2% DMSO control, read-out: Compound Concentration (ppm) sufficient for ≥90% inhibition of growth, Fm
[19] = ≥90% inhibition, 48 hours vs 2% DMSO control, read-out: Compound Concentration (ppm) sufficient for ≥90% inhibition of growth, Rs
[20] = ≥90% inhibition, 48 hours vs 2% DMSO control, read-out: Compound Concentration (ppm) sufficient for ≥90% inhibition of growth, St
[21] = ≥90% inhibition, 48 hours vs 2% DMSO control, read-out: Compound Concentration (ppm) sufficient for ≥90% inhibition of growth, Bc
[22] = ≥90% inhibition, 48 hours vs 2% DMSO control, read-out: Compound Concentration (ppm) sufficient for ≥90% inhibition of growth, Fv
[23] = ≥90% inhibition, 48 hours vs 2% DMSO control, read-out: Compound Concentration (ppm) sufficient for ≥90% inhibition of growth, Dm
[24] = ≥90% growth inhibition, 48 hours, vs 2% DMSO control, read-out: Compound Concentration (ppm) sufficient for ≥90% inhibition of Cg
[25] = ≥90% growth inhibition, 48 hours, vs 2% DMSO control, read-out: Compound Concentration (ppm) sufficient for ≥90% inhibition of Pc
[26] = ≥90% growth inhibition, 48 hours, vs 2% DMSO control, read-out: Compound Concentration (ppm) sufficient for ≥90% inhibition of Fm
[27] = ≥90% growth inhibition, 48 hours, vs 2% DMSO control, read-out: Compound Concentration (ppm) sufficient for ≥90% inhibition of Rs
[28] = ≥90% growth inhibition, 48 hours, vs 2% DMSO control, read-out: Compound Concentration (ppm) sufficient for ≥90% inhibition of St
[29] = ≥90% growth inhibition, 48 hours, vs 2% DMSO control, read-out: Compound Concentration (ppm) sufficient for ≥90% inhibition of Bc
[30] = ≥90% growth inhibition, 48 hours, vs 2% DMSO control, read-out: Compound Concentration (ppm) sufficient for ≥90% inhibition of Fv
[31] = ≥90% growth inhibition, 48 hours, vs 2% DMSO control, read-out: Compound Concentration (ppm) sufficient for ≥90% inhibition of Dm

| Structure (SMILES) | IC90 [1, 16] | IC90 [2, 17] | IC90 [3, 18] | IC90 [4, 19] | IC90 [5, 20] | IC90 [6, 21] | IC75 [7] | IC90 [8, 22] | IC90 [9, 23] | Barley Powdery Mildew Control at a compound concentration of 10 ppm or lower [10] | IC90 [1, 24] | Wheat Fusarium Head Blight Control at a compound concentration of 25 ppm or lower [11] | Septoria Leaf Blotch Control at a compound concentration of 25 ppm or lower [12] | IC90 [2, 25] | Asian Soybean Rust Control at a compound concentration of 25 ppm or lower [13] | IC90 [3, 26] | IC90 [4, 27] | IC90 [5, 28] | IC90 [6, 29] | Wheat Leaf Rust Control at a compound concentration of 10 ppm or lower [14] | other results |
| --- | --- | --- | --- | --- | --- | --- | --- | --- | --- | --- | --- | --- | --- | --- | --- | --- | --- | --- | --- | --- | --- |
| COc1ccc(F)cc1[C@H](Cn1c(=O)n(CCS(N)(=O)=O)c(=O)c2c(C)c(-c3ncco3)sc21)OC1CCOCC1 [Compound I-148] | 50 µg/mL (≈ 82.1 µM) | > 50 µg/mL | 2 µg/mL (≈ 3.29 µM) | 50 µg/mL (≈ 82.1 µM) | > 50 µg/mL | 10 µg/mL (≈ 16.4 µM) | 33 µg/mL (≈ 54.2 µM) | 50 µg/mL (≈ 82.1 µM) | > 10 µg/mL |  |  |  |  |  |  |  |  |  |  |  |  |
| CCNC(=O)C(C)(C)n1c(=O)c2c(C)c(-c3ncco3)sc2n(C[C@H](OC2CCC(=O)CC2)c2ccccc2OC)c1=O [Compound I-105] | 50 µg/mL (≈ 82.1 µM) | > 50 µg/mL | 0.4 µg/mL (≈ 0.657 µM) | > 50 µg/mL | > 50 µg/mL | 2 µg/mL (≈ 3.29 µM) | 1.2 µg/mL (≈ 1.97 µM) | 10 µg/mL (≈ 16.4 µM) | 10 µg/mL (≈ 16.4 µM) |  |  |  |  |  |  |  |  |  |  |  |  |
| CCNC(=O)C(C)(C)n1c(=O)c2c(C)c(-c3ncco3)sc2n(C[C@H](OC(C)C)c2ccccc2OC)c1=O [Compound I-144] | 50 µg/mL (≈ 90.1 µM) | > 50 µg/mL | 2 µg/mL (≈ 3.61 µM) | > 50 µg/mL | > 50 µg/mL | 10 µg/mL (≈ 18 µM) | 11 µg/mL (≈ 19.8 µM) | 10 µg/mL (≈ 18 µM) | 10 µg/mL (≈ 18 µM) |  |  |  |  |  |  |  |  |  |  |  |  |
| COc1ccccc1[C@H](Cn1c(=O)n(C(C)(C)C(=O)N2CCCC2)c(=O)c2c(C)c(-c3ncco3)sc21)O[C@H]1CC[C@@H](O)CC1 [Compound I-111] | 10 µg/mL (≈ 15.7 µM) | > 50 µg/mL | 0.4 µg/mL (≈ 0.628 µM) | 10 µg/mL (≈ 15.7 µM) | 50 µg/mL (≈ 78.5 µM) | 2 µg/mL (≈ 3.14 µM) | 3.7 µg/mL (≈ 5.81 µM) | 2 µg/mL (≈ 3.14 µM) | 10 µg/mL (≈ 15.7 µM) |  |  |  |  |  |  |  |  |  |  |  |  |
| COc1ccc(F)cc1[C@H](Cn1c(=O)n(C(C)(C)C(=O)NC(C)C)c(=O)c2c(C)c(-n3cccn3)sc21)OC[C@@H](C)C#N [Compound I-262, 2-(1-((R)-2-((S)-2-cyanopropoxy)-2-(5-fluoro-2-methoxyphenyl)ethyl)-5-methyl-2,4-dioxo-6-(1H-pyrazol-1-yl)-1,4-dihydrothieno[2,3-d]pyrimidin-3 (2H)-yl)-N-isopropyl-2-methylpropanamide] |  |  |  |  |  |  |  |  |  | A (from 70% to 84% control of barley powdery mildew) | 0.08 µg/mL (≈ 0.131 µM) | B (from 50 to 69% control of wheat fusarium head blight) | AA (≥85% control of wheat septoria leaf blotch) | ≥ 10 µg/mL | AA (≥85% control of Asian soybean rust) | ≥ 0.08 µg/mL | 0.08 µg/mL (≈ 0.131 µM) | ≥ 2 µg/mL | 0.4 µg/mL (≈ 0.655 µM) | AA (≥85% control of wheat leaf rust) | IC90 [8, 30]: 0.4 µg/mL (≈ 0.655 µM); Cucumber Powdery Mildew Control at a compound concentration of 10 ppm or lower [15]: AA (≥85% control of cucumber powdery mildew); IC90 [9, 31]: 2 µg/mL (≈ 3.27 µM) |
| CCc1ccc(F)cc1[C@H](Cn1c(=O)n(C(C)(C)C(=O)NC(C)C)c(=O)c2c(C)c(-n3nccn3)sc21)OC[C@@H](C)C#N [Compound I-281, 2-(1-((R)-2-((S)-2-cyanopropoxy)-2-(2-ethyl-5-fluorophenyl)ethyl)-5-methyl-2,4-dioxo-6-(2H-1,2,3-triazol-2-yl)-1,4-dihydrothieno[2,3-d]pyrimidin-3 (2H)-yl)-N-isopropyl-2-methylpropanamide] |  |  |  |  |  |  |  |  |  | AA (≥85% control of barley powdery mildew) | 0.08 µg/mL (≈ 0.131 µM) | C (from 25 to 49% control of wheat fusarium head blight) | AA (≥85% control of wheat septoria leaf blotch) | > 50 µg/mL | D (<25% control of Asian soybean rust) | 0.08 µg/mL (≈ 0.131 µM) | 0.08 µg/mL (≈ 0.131 µM) | > 50 µg/mL | 0.08 µg/mL (≈ 0.131 µM) | AA (≥85% control of wheat leaf rust) | IC90 [8, 30]: 0.08 µg/mL (≈ 0.131 µM); Cucumber Powdery Mildew Control at a compound concentration of 10 ppm or lower [15]: AA (≥85% control of cucumber powdery mildew); IC90 [9, 31]: 2 µg/mL (≈ 3.28 µM) |
